The source made the active and inactive calls.
Tests used:
[1] = A High Throughput Confirmatory Assay used to Identify Novel Compounds that Inhibit Mycobacterium Tuberculosis in the absence of Glycerol.; type: functional
[2] = molecular target: Induced myeloid leukemia cell differentiation protein Mcl-1 (Homo sapiens, UniProt Q07820); type: functional
NADPH oxidase 1 = molecular target: T1, NADPH oxidase 1 (Homo sapiens, UniProt Q9Y5S8); experiment: Luminescence-based cell-based dose response assay to identify inhibitors of NADPH oxidase 1 (NOX1).; type: functional
T1 sequence (Q9Y5S8 whole entry): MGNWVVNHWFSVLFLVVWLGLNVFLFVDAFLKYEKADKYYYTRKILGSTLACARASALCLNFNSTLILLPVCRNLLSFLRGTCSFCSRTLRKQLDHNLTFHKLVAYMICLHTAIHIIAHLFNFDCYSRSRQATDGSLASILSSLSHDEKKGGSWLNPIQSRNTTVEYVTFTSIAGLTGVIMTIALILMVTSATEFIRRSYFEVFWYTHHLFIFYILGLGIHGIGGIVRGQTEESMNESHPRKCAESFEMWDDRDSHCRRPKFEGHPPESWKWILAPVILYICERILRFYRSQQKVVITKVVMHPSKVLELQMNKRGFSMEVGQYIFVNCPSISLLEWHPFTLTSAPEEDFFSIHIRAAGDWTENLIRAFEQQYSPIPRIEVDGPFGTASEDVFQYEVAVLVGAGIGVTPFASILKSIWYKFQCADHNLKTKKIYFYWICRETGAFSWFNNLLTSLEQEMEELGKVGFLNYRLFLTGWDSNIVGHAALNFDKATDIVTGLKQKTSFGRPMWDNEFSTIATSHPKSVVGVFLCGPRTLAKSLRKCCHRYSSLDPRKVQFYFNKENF

Streptococcus = experiment: GAS UMAA2166 growth inhibition – luminescence, BacTiterGlo, counter-screen for streptokinase expression inhibitor project, dose response (AID 1915); type: functional, organism-based;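 also: potency for reduction of bacterial viability or growth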
[3] = molecular target: T2, Rac GTPase-activating protein 1 (Homo sapiens, UniProt Q9H0H5); experiment: blockers of MgcRacGAP-driven Rac1 GTP hydrolysis – biochemical, ADP Hunter fluorescence, primary and confirmatory, confirmation (AID 624330); type: functional
T2 sequence (Q9H0H5 whole entry): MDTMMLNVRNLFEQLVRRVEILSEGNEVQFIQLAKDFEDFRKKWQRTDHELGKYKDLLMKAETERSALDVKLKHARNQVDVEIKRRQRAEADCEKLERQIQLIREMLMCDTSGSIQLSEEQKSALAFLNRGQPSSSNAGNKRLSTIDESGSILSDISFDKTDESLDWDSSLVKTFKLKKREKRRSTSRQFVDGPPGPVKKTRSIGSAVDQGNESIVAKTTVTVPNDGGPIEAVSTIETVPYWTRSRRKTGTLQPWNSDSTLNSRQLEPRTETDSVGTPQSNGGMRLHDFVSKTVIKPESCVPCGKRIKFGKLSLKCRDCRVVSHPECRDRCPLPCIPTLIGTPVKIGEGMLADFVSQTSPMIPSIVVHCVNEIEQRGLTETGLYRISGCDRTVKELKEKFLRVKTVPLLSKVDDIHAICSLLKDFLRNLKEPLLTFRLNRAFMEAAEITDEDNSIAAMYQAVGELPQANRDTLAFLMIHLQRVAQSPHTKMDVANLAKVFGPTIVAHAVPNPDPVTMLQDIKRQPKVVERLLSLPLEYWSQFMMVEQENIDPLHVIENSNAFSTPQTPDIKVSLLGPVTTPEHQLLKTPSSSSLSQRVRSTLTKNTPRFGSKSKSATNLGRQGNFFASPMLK

[4] = molecular target: G-protein coupled receptor 55 (Homo sapiens, UniProt Q9Y2T6); experiment: inhibition of LPI-stimulated GPR55 beta-arrestin translocation – imaging, U2OS, beta-arrestin-GFP, LPI agonist, primary screen (AID 2013); type: functional;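 also: antagonist potency measured as reduced agonist-driven arrestin aggregation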
Sequence of G-protein coupled receptor 55 (Q9Y2T6 whole entry): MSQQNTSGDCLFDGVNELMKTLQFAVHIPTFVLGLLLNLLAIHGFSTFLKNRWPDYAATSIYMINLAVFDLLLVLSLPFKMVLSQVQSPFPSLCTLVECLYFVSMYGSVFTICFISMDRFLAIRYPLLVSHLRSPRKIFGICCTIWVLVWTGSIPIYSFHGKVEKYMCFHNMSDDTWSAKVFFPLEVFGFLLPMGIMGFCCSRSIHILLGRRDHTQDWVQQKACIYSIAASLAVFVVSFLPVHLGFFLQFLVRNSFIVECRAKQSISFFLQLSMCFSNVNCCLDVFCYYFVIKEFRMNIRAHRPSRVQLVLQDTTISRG

HEK293 = experiment: Fluorescence-based counterscreen for potentiators or agonists of NPY-Y2: cell-based high-throughput dose response assay to identify inhibitors of cyclic nucleotide gated ion channel (CNGC) activity. In this assay, the parental HEK293 cell line transfected with a cyclic-nucleotide gated ion channel (CNGC)-based cAMP sensor is used to measure inhibition of isoproterenol-induced CNGC activity by test compound.; type: functional; conditions: Homo sapiens;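 also: stimulus is 1 µM isoproterenol at EC100 plus PDE inhibitor Ro 20-1724 at 25 µM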
[5] = viability loss in HeLa cells – cytotoxicity control for MgcRacGAP inhibitor project, dose response (AID 624300); type: functional
[6] = molecular target: T3, Neuropeptide Y receptor type 2 (Homo sapiens, UniProt P49146); experiment: Fluorescence-based cell-based high-throughput dose response assay for potentiators or agonists of NPY-Y2. [Related pubchem assays: 1539 (Screening assay (NPY-Y2 potentiators or agonists).), 1703 (Screening assay (CNGC inhibitors).), 1359 (Screening assay (NPY-Y2 potentiators or agonists).), 1304 (Screening assay (NPY-Y1 potentiators or agonists).) …; type: functional
T3 sequence (P49146 whole entry): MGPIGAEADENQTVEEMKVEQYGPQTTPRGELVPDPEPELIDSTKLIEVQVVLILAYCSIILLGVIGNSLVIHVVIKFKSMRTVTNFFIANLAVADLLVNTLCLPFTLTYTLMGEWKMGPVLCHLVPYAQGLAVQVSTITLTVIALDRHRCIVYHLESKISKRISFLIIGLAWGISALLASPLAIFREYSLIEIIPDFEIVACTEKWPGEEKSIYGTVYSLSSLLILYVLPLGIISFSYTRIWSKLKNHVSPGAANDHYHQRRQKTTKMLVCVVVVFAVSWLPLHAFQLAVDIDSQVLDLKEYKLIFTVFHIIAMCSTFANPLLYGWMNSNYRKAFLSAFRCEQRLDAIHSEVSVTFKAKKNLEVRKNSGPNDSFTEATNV

Streptokinase A = molecular target: T4, Streptokinase A (Streptococcus pyogenes serotype M1, UniProt P10520); experiment: viability-normalized secreted streptokinase activity reduction – plasminogen activation absorbance, OD405, dose response (AID 1914); type: functional, Streptococcus pyogenes M1 GAS;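 also: secreted streptokinase activity via plasminogen activation per viability signal from cell pellet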
T4 sequence (P10520 whole entry): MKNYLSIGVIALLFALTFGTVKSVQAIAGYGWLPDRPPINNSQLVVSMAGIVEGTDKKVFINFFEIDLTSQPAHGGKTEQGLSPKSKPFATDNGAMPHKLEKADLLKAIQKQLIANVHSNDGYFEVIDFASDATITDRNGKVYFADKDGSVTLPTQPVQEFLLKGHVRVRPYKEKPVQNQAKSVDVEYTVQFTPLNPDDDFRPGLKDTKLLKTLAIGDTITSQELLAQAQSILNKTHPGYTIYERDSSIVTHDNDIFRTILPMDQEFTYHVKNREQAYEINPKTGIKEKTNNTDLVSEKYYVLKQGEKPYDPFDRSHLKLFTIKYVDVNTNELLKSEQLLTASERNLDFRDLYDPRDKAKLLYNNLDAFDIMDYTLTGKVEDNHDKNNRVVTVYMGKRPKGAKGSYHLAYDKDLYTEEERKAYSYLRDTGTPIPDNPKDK

[7] = molecular target: T3, Neuropeptide Y receptor type 2; experiment: Fluorescence-based cell-based high-throughput dose response assay for agonists of NPY-Y2. [Related pubchem assays: 1703 (Screening assay (CNGC inhibitors).), 1359 (Screening assay (NPY-Y2 potentiators or agonists).), 1304 (Screening assay (NPY-Y1 potentiators or agonists).), 1710 (Screening assay (NPY-Y2 agonists).), 1791 (Summary AID.)]; type: functional
[8] = molecular target: T5, Neuropeptide Y receptor type 1 (Homo sapiens, UniProt P25929); experiment: Fluorescence-based counterscreen for potentiators or agonists of NPY-Y2: cell-based high-throughput dose response assay for potentiators or agonists of NPY-Y1.; type: functional
T5 sequence (P25929 whole entry): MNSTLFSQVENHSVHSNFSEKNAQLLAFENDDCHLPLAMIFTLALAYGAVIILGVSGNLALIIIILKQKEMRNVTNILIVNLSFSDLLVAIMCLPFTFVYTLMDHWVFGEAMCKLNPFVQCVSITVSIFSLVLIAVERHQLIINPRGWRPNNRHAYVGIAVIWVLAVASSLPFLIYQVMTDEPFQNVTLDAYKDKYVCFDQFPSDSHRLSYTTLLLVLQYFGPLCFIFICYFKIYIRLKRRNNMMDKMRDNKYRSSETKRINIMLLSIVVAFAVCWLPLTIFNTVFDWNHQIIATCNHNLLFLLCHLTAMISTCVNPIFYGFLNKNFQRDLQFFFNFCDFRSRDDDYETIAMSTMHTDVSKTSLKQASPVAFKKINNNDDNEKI

[9] = test system: Streptococcus sp. 'group A'; experiment: Streptococcus pyogenes SK(-)GAS viability under kanamycin – luminescence, BacTiterGlo, confirmation, counter-screen for streptokinase expression inhibitor project, dose response (AID 1900); type: functional, organism-based
[10] = molecular target: T5, Neuropeptide Y receptor type 1; experiment: Fluorescence-based counterscreen for agonists of NPY-Y2: cell-based high-throughput dose response assay for agonists of NPY-Y1.; type: functional

Sequence of Induced myeloid leukemia cell differentiation protein Mcl-1 (Q07820 whole entry): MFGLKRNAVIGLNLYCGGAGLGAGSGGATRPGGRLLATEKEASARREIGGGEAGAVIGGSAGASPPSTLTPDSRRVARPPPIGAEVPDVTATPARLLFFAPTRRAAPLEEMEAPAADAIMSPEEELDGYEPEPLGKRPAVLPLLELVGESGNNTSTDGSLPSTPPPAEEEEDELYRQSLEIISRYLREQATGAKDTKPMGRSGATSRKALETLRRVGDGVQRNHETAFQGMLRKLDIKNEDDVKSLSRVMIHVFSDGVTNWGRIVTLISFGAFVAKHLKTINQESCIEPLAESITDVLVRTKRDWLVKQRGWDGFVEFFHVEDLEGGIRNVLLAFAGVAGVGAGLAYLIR

With `COC(=O)[C@@H](NC(=O)O[C@@H]1C(=O)c2ccc(OC)cc2O[C@H]1c1cccc(C(F)(F)F)c1)C(C)C` the IC50 [1] was > 100 µM (active).

In the case of `CCN(CC)c1ccc(NC(=O)Nc2cccc(C(C)=O)c2)cc1`, the IC50 [2] is reported as 3.13 µM (not active) and the IC50 (NADPH oxidase 1) is reported as 0.083 µM (active).

With `CCOC(=O)c1nc(Nc2ccc(Nc3ccccc3)cc2)c2ccccc2n1` the EC50 (Streptococcus) was 12.8 µM (active), the IC50 [3] was 105 µM (active) and the IC50 [4] was 2.48 µM (active). The EC50 (HEK293) was > 11.8 µM (not active), the CC50 [5] was 44.8 µM (active) and the EC50 [6] was 13.2 µM (not active). The EC50 (Streptokinase A) was > 150 µM (not active), the EC50 [7] was 10.1 µM (not active) and the EC50 [8] was 13.2 µM (not active). The EC50 [9] was 10.2 µM (active) and the EC50 [10] was 10.9 µM (not active).
